The experiment relates to P388 leukemia ip, CD2F1 mice, survival T/C. Nature of the experiment: NCI In Vivo Anticancer Drug Screen. Data for tumor model P388 Leukemia (intraperitoneal) in CD2F1 (CDF1) mice. The settings on record: endpoint: median survival time, higher = longer survival. The method, boiled down:
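Mice carrying the transplanted tumor received test compound or vehicle. Survival was recorded in each group, and the value is the treated-group measurement divided by that of the vehicle-treated control group.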

Setting [1] is: dose: 50.0 mg/kg/injection, schedule: Q01DX009 (ip), vehicle: saline with Tween-80.
The mark [2] stands for this setting: dose: 100.0 mg/kg/injection, schedule: Q01DX009 (ip), vehicle: saline with Tween-80.
Where [3] appears, read: dose: 50.0 mg/kg/injection, schedule: Q01DX005 (ip), vehicle: Klucel (hydroxypropylcellulose) (HPC).
Setting [4] is: dose: 200.0 mg/kg/injection, schedule: Q01DX005 (ip), vehicle: Klucel (hydroxypropylcellulose) (HPC).
The mark [5] stands for this setting: dose: 100.0 mg/kg/injection, schedule: Q04DX003 (ip), vehicle: saline with Tween-80.
[6] abbreviates: dose: 100.0 mg/kg/injection, schedule: Q01DX005 (ip), vehicle: Klucel (hydroxypropylcellulose) (HPC).
The mark [7] stands for this setting: dose: 200.0 mg/kg/injection, schedule: Q01DX009 (ip), vehicle: saline with Tween-80.

Values joined by “and” are separate entries in the source; they are usually repeats but may differ in a detail not shown here. Identical values can stand only once. Inconclusive results and toxic doses are left out.

With `COc1cc(NC(=O)N(CCCl)N=O)cc(OC)c1OC`, the T/C reads like this: (dose: 0.18 mg/kg/injection, schedule: Q01DX009 (ip), vehicle: alcohol) 107 % of control; (dose: 0.27 mg/kg/injection, schedule: Q01DX009 (ip), vehicle: alcohol) 109 % of control; (dose: 0.4 mg/kg/injection, schedule: Q01DX009 (ip), vehicle: alcohol) 100 % of control; (dose: 0.6 mg/kg/injection, schedule: Q01DX009 (ip), vehicle: alcohol) 107 % of control; (dose: 1.33 mg/kg/injection, schedule: Q01DX009 (ip), vehicle: saline + alcohol) 173 % of control; (dose: 2.0 mg/kg/injection, schedule: Q01DX009 (ip), vehicle: saline + alcohol) 170 % of control. Further, the T/C (dose: 7.5 mg/kg/injection, schedule: Q04DX003 (ip), vehicle: saline + alcohol) was 154 % of control; the T/C (dose: 12.5 mg/kg/injection, schedule: Q04DX003 (ip), vehicle: other) was 215 % of control; the T/C (dose: 25.0 mg/kg/injection, schedule: Q04DX003 (ip), vehicle: other) was 280 % of control; the T/C (dose: 50.0 mg/kg/injection, schedule: Q04DX003 (ip), vehicle: other) is 300 % of control.
With `Cc1c2[nH]c(C(=O)O)cc(=O)c2cc2c(=O)cc(C(=O)O)[nH]c12`, the T/C reads like this: (dose: 25.0 mg/kg/injection, schedule: Q01DX009 (ip), vehicle: saline with Tween-80) 100 % of control; under setting [1], 99 % of control; under setting [2], 94 % of control.
As for `COc1cccc(C(Cc2ccccc2)Nc2ccccc2)c1OC` (centres undefined), the T/C reads like this: (dose: 3.0 mg/kg/injection, schedule: Q01DX005 (ip), vehicle: Klucel (hydroxypropylcellulose) (HPC)) 94 % of control; (dose: 6.0 mg/kg/injection, schedule: Q01DX005 (ip), vehicle: Klucel (hydroxypropylcellulose) (HPC)) 93 % of control; (dose: 12.0 mg/kg/injection, schedule: Q01DX005 (ip), vehicle: Klucel (hydroxypropylcellulose) (HPC)) 93 % of control; under setting [3], 92 % of control; under setting [4], 88 % of control.
Consider `CC(=NC(C)C)Nc1ccc(Cl)cc1C`, for which the T/C (dose: 50.0 mg/kg/injection, schedule: Q01DX009 (ip), vehicle: saline + Tween-80 + alcohol) was 101 % of control and the T/C (dose: 100.0 mg/kg/injection, schedule: Q01DX009 (ip), vehicle: saline + Tween-80 + alcohol) was 95 % of control.
Turning to `COC(=O)CC1C=CC(OC)[C@@]2(C)C(=O)C=C(C)C(=O)[C@@H]12` (some centres undefined), the T/C by setting is: (dose: 60.0 mg/kg/injection, schedule: Q01DX005 (ip), vehicle: saline with Tween-80) 110 % of control; (dose: 120.0 mg/kg/injection, schedule: Q01DX005 (ip), vehicle: saline with Tween-80) 106 % of control; (dose: 240.0 mg/kg/injection, schedule: Q01DX005 (ip), vehicle: saline with Tween-80) 106 % of control.
For `CCN(CC)CCNc1ccc(CO)c2sc3ccccc3c(=O)c12`, the T/C was 110 % of control (dose: 5.0 mg/kg/injection, schedule: Q01DX005 (ip), vehicle: water); 113 % of control (dose: 5.0 mg/kg/injection, schedule: Q01DX009 (ip), vehicle: water); 104 % of control (dose: 6.25 mg/kg/injection, schedule: Q01DX005 (ip), vehicle: saline); 100 % of control (dose: 6.25 mg/kg/injection, schedule: Q01DX005 (iv), vehicle: saline); 106 % of control (dose: 10.0 mg/kg/injection, schedule: Q01DX005 (ip), vehicle: water); 116 % of control (dose: 10.0 mg/kg/injection, schedule: Q01DX009 (ip), vehicle: water). Also, the T/C was 118 % of control (dose: 10.36 mg/kg/injection, schedule: Q01DX005 (ip), vehicle: water); 101 % of control (dose: 12.5 mg/kg/injection, schedule: Q01DX005 (ip), vehicle: saline); 104 % of control (dose: 12.5 mg/kg/injection, schedule: Q01DX005 (iv), vehicle: saline); 109 % of control (dose: 12.5 mg/kg/injection, schedule: Q01DX009 (ip), vehicle: water); 109 % of control (dose: 17.28 mg/kg/injection, schedule: Q01DX005 (ip), vehicle: water); 104 % of control (dose: 20.0 mg/kg/injection, schedule: Q01DX005 (ip), vehicle: water). Also, the T/C is, setting by setting: (dose: 20.0 mg/kg/injection, schedule: Q01DX009 (ip), vehicle: water) 118 % of control; (dose: 25.0 mg/kg/injection, schedule: Q01DX005 (ip), vehicle: saline) 109 % of control; (dose: 25.0 mg/kg/injection, schedule: Q01DX005 (iv), vehicle: saline) 108 % of control; (dose: 25.0 mg/kg/injection, schedule: Q01DX009 (ip), vehicle: water) 122 % of control; (dose: 28.8 mg/kg/injection, schedule: Q01DX005 (ip), vehicle: water) 109 % of control; (dose: 50.0 mg/kg/injection, schedule: Q01DX005 (iv), vehicle: saline) 117 % of control. Further, the T/C was 156 % of control (dose: 50.0 mg/kg/injection, schedule: Q01DX009 (ip), vehicle: water); 151 % of control and 182 % of control (dose: 80.0 mg/kg/injection, schedule: Q01DX005 (ip), vehicle: water); 100 % of control (dose: 100.0 mg/kg/injection, schedule: Q01DX009 (ip), vehicle: water); 118 % of control under setting [5]; 150 % of control (dose: 200.0 mg/kg/injection, schedule: Q04DX003 (ip), vehicle: saline sonified); 90 % of control (dose: 400.0 mg/kg/injection, schedule: Q04DX003 (ip), vehicle: saline with Tween-80).
Regarding `O=C(O)CCCCCCCCCCNC(=O)Nc1cccc(C(F)(F)F)c1`, the T/C was 88 % of control (dose: 25.0 mg/kg/injection, schedule: Q01DX009 (ip), vehicle: saline); 98 % of control (dose: 50.0 mg/kg/injection, schedule: Q01DX009 (ip), vehicle: saline); 104 % of control (dose: 100.0 mg/kg/injection, schedule: Q01DX009 (ip), vehicle: saline); 111 % of control (dose: 200.0 mg/kg/injection, schedule: Q01DX009 (ip), vehicle: saline).
Turning to `C/C(C=O)=C\c1ccc2c(c1)OCO2`, the T/C was 104 % of control under setting [3], 97 % of control under setting [6] and 106 % of control under setting [4].
`CNc1ccc(Nc2c3ccccc3nc3ccccc23)cc1`: the T/C is 109 % of control (dose: 6.25 mg/kg/injection, schedule: Q04DX002 (ip), vehicle: distilled water + Tween-80); 120 % of control and 124 % of control (dose: 12.5 mg/kg/injection, schedule: Q04DX002 (ip), vehicle: distilled water + Tween-80); 118 % of control (dose: 25.0 mg/kg/injection, schedule: Q04DX002 (ip), vehicle: distilled water + Tween-80); 160 % of control (dose: 50.0 mg/kg/injection, schedule: Q04DX002 (ip), vehicle: distilled water + Tween-80); 194 % of control and 232 % of control (dose: 100.0 mg/kg/injection, schedule: Q04DX002 (ip), vehicle: distilled water + Tween-80).
With `CN1CCC(=C2c3ccccc3C(=O)C(=O)c3sccc32)CC1`, the T/C runs as follows: under setting [1], 95 % of control; under setting [2], 95 % of control; under setting [7], 111 % of control.
For the compound `COC(C)C(Cl)C(=O)NN=C(c1ccccc1)c1ccccc1` (centres undefined), the T/C runs as follows: under setting [1], 108 % of control; under setting [2], 105 % of control; under setting [7], 99 % of control.
Turning to `COc1ccc(N2C(=O)C3C4C=CC(C3C2=O)N(C)C4=O)cc1` (centres undefined), the T/C by setting is: (dose: 100.0 mg/kg/injection, schedule: Q04DX002 (ip), vehicle: saline with Tween-80) 101 % of control; (dose: 200.0 mg/kg/injection, schedule: Q04DX002 (ip), vehicle: saline with Tween-80) 98 % of control; (dose: 400.0 mg/kg/injection, schedule: Q04DX002 (ip), vehicle: saline with Tween-80) 87 % of control.
With `CSC(=S)N1CC(=O)N(C(=S)SC)CC1=O`, the T/C was 87 % of control under setting [3], 92 % of control under setting [6] and 86 % of control under setting [4].
Regarding `CCC(C)(C)c1cccc(C(=O)O)c1O`, the T/C by setting is: (dose: 25.0 mg/kg/injection, schedule: Q04DX003 (ip), vehicle: saline with Tween-80) 100 % of control; (dose: 50.0 mg/kg/injection, schedule: Q04DX003 (ip), vehicle: saline with Tween-80) 118 % of control; under setting [5], 106 % of control and 112 % of control.

Source of the values: PubChem BioAssay AID330 (DTP/NCI, 2004).
